From patent US11236086B2, “Substituted pyrrolopyridines as inhibitors of activin receptor-like kinase” (BLUEPRINT MEDICINES CORPORATION, priority 2017, dated 2022)

Key:
[1] = target: T1, ALK2R206H (mutant ALK2, N-terminally tagged with GST) (Homo sapiens, UniProt Q04771, R206H); assay: ALK binding assay (LANTHASCREEN TR-FRET competitive binding, displacement of Kinase Tracer 178); settings: read-out: Binding Assay (IC50 class)
T1 construct: purchased Carna Bioscience or ThermoFisher 09-148 or PV6232
T1 sequence (Q04771 21-509 R206H): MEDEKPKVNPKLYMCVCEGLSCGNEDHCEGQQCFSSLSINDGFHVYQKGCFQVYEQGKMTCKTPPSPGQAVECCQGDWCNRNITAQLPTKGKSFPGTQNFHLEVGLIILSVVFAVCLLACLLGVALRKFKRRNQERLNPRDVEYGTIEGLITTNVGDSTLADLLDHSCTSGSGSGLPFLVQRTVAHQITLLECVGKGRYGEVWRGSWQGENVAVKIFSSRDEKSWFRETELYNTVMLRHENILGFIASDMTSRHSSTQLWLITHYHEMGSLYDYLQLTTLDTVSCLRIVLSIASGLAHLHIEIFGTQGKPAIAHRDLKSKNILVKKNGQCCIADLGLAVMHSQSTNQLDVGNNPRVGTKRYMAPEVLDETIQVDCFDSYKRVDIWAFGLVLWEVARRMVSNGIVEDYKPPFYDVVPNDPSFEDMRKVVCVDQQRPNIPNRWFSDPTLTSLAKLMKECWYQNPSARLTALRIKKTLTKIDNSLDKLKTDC
How it was run: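 GST-tagged ALK2 R206H (2-5 nM) mixed with Eu-anti-GST antibody (4-10 nM), Kinase Tracer 178 (50 nM, near its Kd) and compound titration (1% DMSO) in Kinase Buffer A, 30 min at room temperature. Tracer displacement read as TR-FRET ratio, normalized to controls; IC50 from 4-parameter fit.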

[2] = target: T2, human ALK2 R206H (Homo sapiens, UniProt Q04771, R206H); assay: Cell-based ALK2-R206H cell activity assay (Smad1-Ser463/Ser465 phosphorylation by AlphaLISA in HEK293-ALK2-R206H cells); settings: phospho-Smad1 AlphaLISA, read-out: Cell Line (Cell Assay, IC50 class)
T2 construct: expressed in transfected cells; host or cells: HEK293 (ATCC CRL1573), lentivirus transduction, blasticidin selection
T2 sequence (Q04771 21-509 R206H): T1 sequence (Q04771 21-509 R206H)
Method: Example 11. Cell-Based ALK2-R206H Cell Activity Assay
A HEK293 (ATCC, Cat No. CRL1573) based stable cell line expressing human ALK2 R206H cDNA (synthesized by GeneScript, Piscataway, N.J.) and a FLAG tag at the C-terminus was generated by lentivirus transduction and subsequent blasticidin (Life Technologies, Cat No. A1113902) selection at 10 μg/ml for >2 wks. This cell line was named HEK293-ALK2-R206H.
B. Measurement of Smad1-Ser463/Ser465 Phosphorylation by AlphaLISA
HEK293-ALK2-R206H cells were grown, harvested, and then resuspended in serum-free, phenol red-free DMEM high glucose media (Life Technologies, Cat No. 31053). The media also contained 50 units/ml penicillin and 50 μg/ml streptomycin (Life Technologies, Cat. No. 15070-063). HEK293-ALK2-R206H cells were then plated in white opaque 384-wells microplates (2×10^4/well) (OptiPlate-384, PerkinElmer, Waltham, Mass., Cat No. 6007299) overnight (>16h) at 37° C. 5% CO2 for use in the assay.
Test compounds were first diluted to 4 mM or 0.4 mM and then serially diluted 3-fold into 10 different concentrations using DMSO. Each concentration of compound was further diluted 40-fold with phenol red-free DMEM (Life Technologies, Cat No. 31053). 2 μl of the diluted compounds were then dispensed into the HEK293-ALK2-R206H cell-containing wells of the microplates in duplicates. In this way, each compound was tested in 10 doses (3-fold serial dilution with the top concentration being 10 μM or 1 μM). Liquid handling was achieved using a Bravo Automated Liquid Handling Platform (Agilent Technologies). DMSO without compound was used as a negative control. The positive control was 1 μM LDN193189, a known bone morphogenetic protein (BMP inhibitor).
After 2-3 hours of incubation with test compound or control, the cells were lysed and signal was developed using ALPHASCREEN® SUREFIRE® SMAD1 (p-Ser463/465) cellular kinase assay kit (PerkinElmer, Cat No. TGRSM1S10K) following the manufacturer's recommended protocol. The microplates were read using Perkin Elmer ENVISION® plate reader (emission […]). The signal reflected the level of phospho-Ser/463/465-Smad1 in the lysate. The raw data were plotted using the DMSO negative and LDN193189 positive controls as the 0% and 100% inhibition, respectively. The 10-point dose response curve was used to calculate the IC50 values.
The results of this assay are shown in Table 3 in the column labeled “Cell Assay” wherein “A” represents an IC50 of less than or equal to 100 nM; “B” an IC50 of greater than 100 nM and less than or equal to 500 nM; “C” an IC50 of greater than 500 nM. Blank values in the table indicate that the particular compound was not tested in this assay.

SMILES | IC50 [1] | IC50 [2]
O=C(OC1COC1)N1CCN(c2ccnc3[nH]c(-c4cccnc4)cc23)CC1 [Compound 67] | ≤ 10 nM | 100 to 500 nM
CN1CCN(c2ccc(-c3cc4c(N5CCN(C(=O)C6CC6)CC5)ccnc4[nH]3)cc2)CC1 [Compound 380] | ≤ 10 nM | ≤ 100 nM
CC(C)(O)c1cnc(-c2cc3c(N4CCN(C(=O)OC5COC5)CC4)ccnc3[nH]2)s1 [Compound 377] | ≤ 10 nM | ≤ 100 nM
CCOC(=O)N1CCN(c2ccnc3[nH]c(-c4ccc(C5(OC)CCN(C(C)CF)CC5)cn4)cc23)CC1 (centres unmarked) [Compound 476] | ≤ 10 nM | ≤ 100 nM
N#Cc1c(-c2cnn(C(F)F)c2)[nH]c2nccc(N3CCN(C(=O)OC4COC4)CC3)c12 [Compound 376] | ≤ 10 nM | ≤ 100 nM
NC1(c2ccc(-c3cc4c(N5CCN(C(=O)C6CC6)CC5)ccnc4[nH]3)cc2)CC1 [Compound 183] | ≤ 10 nM | ≤ 100 nM
CC(C)c1cnc(-c2cc3c(N4CCN(C(=O)OC5COC5)CC4)ccnc3[nH]2)s1 [Compound 316] | ≤ 10 nM | ≤ 100 nM
O=C(C1CC1)N1CCN(c2ccnc3[nH]c(-c4ccc(C5(O)COC5)cc4)cc23)CC1 [Compound 283] | ≤ 10 nM | 100 to 500 nM
CCOC(=O)N1CCN(c2ccnc3[nH]c(-c4ccc([C@@]5(O)CCOC5)cc4)cc23)CC1 [Compound 355] | ≤ 10 nM | ≤ 100 nM
CCOc1ccc(-c2cc3c(N4CCN(C(=O)C5CC5)CC4)ccnc3[nH]2)cc1 [Compound 127] | 10 to 50 nM | 100 to 500 nM
CN(C)CCOc1ccc(-c2cc3c(N4CCN(C(=O)C5CC5)CC4)ccnc3[nH]2)cc1 [Compound 343] | ≤ 10 nM | ≤ 100 nM
Cc1nc(-c2[nH]c3nccc(N4CCN(C(=O)OC5COC5)CC4)c3c2Cl)cn1C [Compound 331] | ≤ 10 nM | ≤ 100 nM
O=C(C1CC1)N1CCN(c2ccnc3[nH]c(-c4ccc(N5CCNC6(COC6)C5)cc4)cc23)CC1 [Compound 437] | ≤ 10 nM | ≤ 100 nM
Cn1cc(-c2cc3c(N4CCN(C(=O)[C@H]5C[C@@H]5C#N)CC4)ccnc3[nH]2)cn1 [Compound 54] | ≤ 10 nM | 100 to 500 nM
Cn1cc(-c2cc3c(N4CCN(C(=O)OC5COC5)CC4)ccnc3[nH]2)nn1 [Compound 105] | ≤ 10 nM | 100 to 500 nM
Cn1cnc(-c2[nH]c3nccc(N4CCN(C(=O)O[C@H]5C[C@H](F)C5)CC4)c3c2C#N)c1 [Compound 297] | ≤ 10 nM | ≤ 100 nM
Cc1nc(-c2cc3c(N4CCN(C(=O)OC5CCC5)CC4)ccnc3[nH]2)cn1C [Compound 139] | ≤ 10 nM | ≤ 100 nM
O=C(C1CC1)N1CCN(c2ccnc3[nH]c(-c4ccc(N5CCN6CCOCC6C5)cc4)cc23)CC1 (centres unmarked) [Compound 453] | ≤ 10 nM | ≤ 100 nM
CCN1CCN(c2ccc(-c3cc4c(N5CCN(C(=O)C6CC6)CC5)ccnc4[nH]3)cc2)CC1 [Compound 418] | ≤ 10 nM | ≤ 100 nM

SMILES | IC50 [1] | IC50 [2]
CCN1CC[C@@H](c2ccc(-c3cc4c(N5CCN(C(=O)C6CC6)CC5)ccnc4[nH]3)cc2)C(F)(F)C1 [Compound 458] | ≤ 10 nM | ≤ 100 nM
Cn1cc(-c2cc3c(N4CCN(C(=O)OC5CC(F)(F)C5(F)F)CC4)ccnc3[nH]2)cn1 (centres unmarked) [Compound 399] | ≤ 10 nM | 100 to 500 nM
CCOC(=O)N1CCN(c2ccnc3[nH]c(-c4ccc(C5(O)CCOCC5)cc4C#N)cc23)CC1 [Compound 441] | ≤ 10 nM | ≤ 100 nM
O=C(c1ccc(-c2cc3c(N4CCN(C(=O)C5CC5)CC4)ccnc3[nH]2)cc1)N1CCC1 [Compound 324] | ≤ 10 nM | 100 to 500 nM
O=C(OC1COC1)N1CCN(c2ccnc3[nH]c(-c4cnn(C5CC5)c4)cc23)CC1 [Compound 219] | ≤ 10 nM | ≤ 100 nM
Cn1cc(-c2cc3c(N4CCN(C(=O)O[C@H]5COC[C@@H]5F)CC4)ccnc3[nH]2)cn1 [Compound 254] | ≤ 10 nM | 100 to 500 nM
O=C(OC1COC1)N1CCN(c2ccnc3[nH]c(-c4cn[nH]c4C4CC4)cc23)CC1 [Compound 220] | 10 to 50 nM | > 500 nM
Cn1cc(-c2cc3c(N4CCN(C(=O)OC5COC5)CC4)ccnc3[nH]2)cc1C#N [Compound 203] | ≤ 10 nM | ≤ 100 nM
Cn1cc(-c2[nH]c3nccc(N4CCN(C(=O)[C@H]5CC[C@H](C#N)CC5)CC4)c3c2C#N)cn1 [Compound 374] | ≤ 10 nM | ≤ 100 nM
CC(C)n1cc(-c2cc3c(N4CCN(C(=O)[C@H]5CC[C@H](C#N)CC5)CC4)ccnc3[nH]2)cn1 [Compound 381] | ≤ 10 nM | ≤ 100 nM
Cn1cc(-c2cc3c(N4CCN(C(=O)CC(F)(F)F)CC4)ccnc3[nH]2)cn1 [Compound 131] | 10 to 50 nM | > 500 nM
O=C(OC1COC1)N1CCN(c2ccnc3[nH]c(-c4cn(C(F)F)cn4)cc23)CC1 [Compound 280] | ≤ 10 nM | ≤ 100 nM
Cn1cc(-c2cc3c(N4CCN(C(=O)OCCC#N)CC4)ccnc3[nH]2)cn1 [Compound 71] | ≤ 10 nM | 100 to 500 nM
CCOC(=O)N1CCN(c2ccnc3[nH]c(-c4cnn(C)c4C#N)cc23)CC1 [Compound 70] | ≤ 10 nM | ≤ 100 nM
Cn1cnc(-c2cc3c(N4CCN(C(=O)OC5COC5)CC4)ccnc3[nH]2)c1 [Compound 89] | ≤ 10 nM | ≤ 100 nM
Cc1nn(C)cc1-c1cc2c(N3CCN(C(=O)[C@H]4CC[C@H](C#N)CC4)CC3)ccnc2[nH]1 [Compound 333] | ≤ 10 nM | 100 to 500 nM
Cc1nc(-c2[nH]c3nccc(N4CCN(C(=O)O[C@H]5C[C@H](F)C5)CC4)c3c2C#N)cn1C [Compound 357] | ≤ 10 nM | ≤ 100 nM
CCc1csc(-c2cc3c(N4CCN(C(=O)OC5COC5)CC4)ccnc3[nH]2)n1 [Compound 251] | ≤ 10 nM | 100 to 500 nM
